# Counter-ions that a name gives are not always drawn.
# Columns and labels:
# [1] = test system: Huh-7; test: XTT antiproliferative assay, Huh-7; assay type: cell-based; conditions: Homo sapiens, 72 h, mean ± SD
# Protocol: (§1) All the synthesized 4-anilinoquinolinylchalcone derivatives were evaluated in vitro against two cancer cells (Huh-7 and MDA-MB-231) and a non-cancer normal fibroblast lung cell line (MRC-5) using an XTT (sodium 3′-[1-(phenylamino-carbonyl)-3,4-tetrazolium}-bis(4-methoxy-6-nitro)benzene sulfonic acid hydrate) assay. The concentration that inhibited the growth of 50% of cells (IC50) was determined from the linear portion of the curve by calculating the concentration of the tested agent that reduced absorbance in treated cells, compared to control cells, by 50%. The IC50 results of these 4-anilinoquinolinylchalcone derivatives are summarized (Table 1). […] Thus, 4a was selected as a lead compound for further mechanism studies.
# (§2) Cancer cells (Huh-7, MDA-MB-231) and normal lung cells (MRC-5) were purchased from Bioresources Collection and Research Center, Taiwan. Cells were maintained in the same standard medium, grown as a monolayer in DMEM (Gibco, Miami, FL, USA), and supplemented with 10% fetal bovine serum (FBS) and antibiotics, i.e., 100 IU/mL penicillin, 0.1 mg/mL streptomycin and 0.25 μg/mL amphotericin. The culture was maintained at 37 °C with 5% CO2 in a humidified atmosphere. Cells (5 × 10^3 cells/well) were treated with tested compounds for 72 h in the medium containing 10% FBS. Cell viability was quantitated with the use of sodium 3′-[1-(phenylamino-carbonyl)-3,4-tetrazolium}-bis(4-methoxy-6-nitro)benzene sulfonic acid hydrate (XTT) colorimetric assay (Biological Industries, Beit-Haemek, Israel). XTT labeling reagent (1 mg/mL) was mixed with electron-coupling reagent, following the manufacturer’s instructions, and 50 μL of the mixture was added directly to the cells. The plates were further incubated at 37 °C for 4 h. Color was measured spectrophotometrically in a microtiter plate reader at 492 nm and used as a relative measurement of viable cell numbers. After drug treatment, the viable cell number was compared to the solvent and untreated control cell number. This information was used to determine the percent of control growth as (Abtreated/Abcontrol) × 100, where Ab represents the mean absorbance (n = 3). The concentration that killed 50% of cells (IC50) was determined from the linear portion of the curve by calculating the concentration of the agent that reduced the absorbance in treated cells, compared to control cells, by 50%.
# [2] = test system: MDA-MB-231; test: XTT antiproliferative assay, MDA-MB-231; assay type: cell-based; conditions: Homo sapiens, 72 h, mean ± SD
# Protocol: as §1, §2
# [3] = test system: MRC-5; test: XTT antiproliferative assay, normal lung cells MRC-5; assay type: cell-based; conditions: Homo sapiens, MRC5, 72 h, mean ± SD
# Protocol: as §1, §2
melting point,IC50 [1],IC50 [2],Structure (SMILES),IC50 [3]
162 to 163 °C,–,–,"O=C(/C=C/c1cc(Nc2ccc(OCc3ccccc3)cc2)c2ccccc2n1)c1ccc(F)cc1 (as salt: salt) [Compound 5a, (E)-3-{4-{[4-(Benzyloxy)phenyl]amino}quinolin-2-yl}-1-(4-fluorophenyl)prop-2-en-1-one]",–
192 to 193 °C,–,–,"O=C(/C=C/c1cc(Nc2ccc(OCc3ccccc3Cl)cc2)c2ccccc2n1)c1ccc(F)cc1 (as salt: salt) [Compound 5b, (E)-3-{4-{{4-[(2-Chlorobenzyl)oxy]phenyl}amino}quinolin-2-yl}-1-(4-fluorophenyl) prop-2-en-1-one]",–
207 to 208 °C,–,–,"O=C(/C=C/c1cc(Nc2ccc(OCc3ccccc3F)cc2)c2ccccc2n1)c1ccc(F)cc1 (as salt: salt) [Compound 5c, (E)-3-{4-{{4-[(2-Fluorobenzyl)oxy]phenyl}amino}quinolin-2-yl}-1-(4-fluorophenyl) prop-2-en-1-one]",–
172 to 173 °C,–,–,"O=C(/C=C/c1cc(Nc2ccc(OCc3cccc(Cl)c3)cc2)c2ccccc2n1)c1ccc(F)cc1 (as salt: salt) [Compound 5d, (E)-3-{4-{{4-[(3-Chlorobenzyl)oxy]phenyl}amino}quinolin-2-yl}-1-(4-fluorophenyl) prop-2-en-1-one]",–
213 to 214 °C,–,–,"O=C(/C=C/c1cc(Nc2ccc(OCc3cccc(F)c3)cc2)c2ccccc2n1)c1ccc(F)cc1 (as salt: salt) [Compound 5e, (E)-3-{4-{{4-[(3-Fluorobenzyl)oxy]phenyl}amino}quinolin-2-yl}-1-(4-fluorophenyl)prop-2-en-1-one]",–
–,1240 ± 90 nM,1650 ± 770 nM,"O=C(/C=C/c1cc(Nc2ccc(OCc3ccccc3)cc2)c2ccccc2n1)c1ccc(F)cc1 [Compound 5a, (E)-3-{4-{[4-(Benzyloxy)phenyl]amino}quinolin-2-yl}-1-(4-fluorophenyl)prop-2-en-1-one]",> 20000 nM
–,1240 ± 300 nM,1530 ± 210 nM,"O=C(/C=C/c1cc(Nc2ccc(OCc3ccccc3Cl)cc2)c2ccccc2n1)c1ccc(F)cc1 [Compound 5b, (E)-3-{4-{{4-[(2-Chlorobenzyl)oxy]phenyl}amino}quinolin-2-yl}-1-(4-fluorophenyl) prop-2-en-1-one]",> 20000 nM
–,1250 ± 70 nM,1420 ± 700 nM,"O=C(/C=C/c1cc(Nc2ccc(OCc3ccccc3F)cc2)c2ccccc2n1)c1ccc(F)cc1 [Compound 5c, (E)-3-{4-{{4-[(2-Fluorobenzyl)oxy]phenyl}amino}quinolin-2-yl}-1-(4-fluorophenyl) prop-2-en-1-one]",> 20000 nM
–,1280 ± 210 nM,1760 ± 130 nM,"O=C(/C=C/c1cc(Nc2ccc(OCc3cccc(Cl)c3)cc2)c2ccccc2n1)c1ccc(F)cc1 [Compound 5d, (E)-3-{4-{{4-[(3-Chlorobenzyl)oxy]phenyl}amino}quinolin-2-yl}-1-(4-fluorophenyl) prop-2-en-1-one]",> 20000 nM
–,1270 ± 60 nM,1820 ± 280 nM,"O=C(/C=C/c1cc(Nc2ccc(OCc3cccc(F)c3)cc2)c2ccccc2n1)c1ccc(F)cc1 [Compound 5e, (E)-3-{4-{{4-[(3-Fluorobenzyl)oxy]phenyl}amino}quinolin-2-yl}-1-(4-fluorophenyl)prop-2-en-1-one]",> 20000 nM
–,1340 ± 350 nM,2030 ± 140 nM,"COc1cccc(COc2ccc(Nc3cc(/C=C/C(=O)c4ccc(F)cc4)nc4ccccc34)cc2)c1 [Compound 5f, (E)-1-(4-Fluorophenyl)-3-{4-{{4-[(3-methoxybenzyl)oxy]phenyl}amino}quinolin-2-yl}prop-2-en-1-one]",> 20000 nM
–,1300 ± 140 nM,1500 ± 770 nM,"O=C(/C=C/c1cc(Nc2ccc(OCc3ccc(Cl)cc3)cc2)c2ccccc2n1)c1ccc(F)cc1 [Compound 5g, (E)-3-{4-{{4-[(4-Chlorobenzyl)oxy]phenyl}amino}quinolin-2-yl}-1-(4-fluorophenyl)prop-2-en-1-one]",> 20000 nM
–,1290 ± 280 nM,1680 ± 210 nM,"O=C(/C=C/c1cc(Nc2ccc(OCc3ccc(F)cc3)cc2)c2ccccc2n1)c1ccc(F)cc1 [Compound 5h, (E)-3-{4-{{4-[(4-Fluorobenzyl)oxy]phenyl}amino}quinolin-2-yl}-1-(4-fluorophenyl)prop-2-en-1-one]",> 20000 nM

# The next lines start with the compound.
Structure (SMILES),melting point,IC50 [1],IC50 [2],IC50 [3]
"COc1ccc(C(=O)/C=C/c2cc(Nc3ccc(OCc4ccccc4)cc3)c3ccccc3n2)cc1 (as salt: salt) [Compound 4a, (E)-3-{4-{[4-(Benzyloxy)phenyl]amino}quinolin-2-yl}-1-(4-methoxyphenyl)prop-2-en-1-one]",200 to 201 °C,–,–,–
"COc1ccc(C(=O)/C=C/c2cc(Nc3ccc(OCc4ccccc4Cl)cc3)c3ccccc3n2)cc1 (as salt: salt) [Compound 4b, (E)-3-{4-{{4-[(2-Chlorobenzyl)oxy]phenyl}amino}quinolin-2-yl}-1-(4-methoxy - phenyl) prop-2-en-1-one]",160 to 161 °C,–,–,–
COc1ccc(C(=O)/C=C/c2cc(Nc3ccc(OCc4ccccc4F)cc3)c3ccccc3n2)cc1 (as salt: salt) [Compound 4c],175 to 176 °C,–,–,–
"COc1ccc(C(=O)/C=C/c2cc(Nc3ccc(OCc4cccc(Cl)c4)cc3)c3ccccc3n2)cc1 (as salt: salt) [Compound 4d, (E)-3-{4-{{4-[(3-Chlorobenzyl)oxy]phenyl}amino}quinolin-2-yl}-1-(4-methoxy-phenyl) prop-2-en-1-one]",132 to 133 °C,–,–,–
"COc1ccc(C(=O)/C=C/c2cc(Nc3ccc(OCc4cccc(F)c4)cc3)c3ccccc3n2)cc1 (as salt: salt) [Compound 4e, (E)-3-{4-{{4-[(3-Fluorobenzyl)oxy]phenyl}amino}quinolin-2-yl}-1-(4-methoxy-phenyl) prop-2-en-1-one]",171 to 172 °C,–,–,–
"COc1ccc(C(=O)/C=C/c2cc(Nc3ccc(OCc4ccc(Cl)cc4)cc3)c3ccccc3n2)cc1 (as salt: salt) [Compound 4g, (E )-3-{4-{{4-[(4-Chlorobenzyl)oxy]phenyl}amino}quinolin-2-yl}-1-(4-methoxy - phenyl)prop-2-en-1-one]",142 to 143 °C,–,–,–
"COc1ccc(C(=O)/C=C/c2cc(Nc3ccc(OCc4ccc(F)cc4)cc3)c3ccccc3n2)cc1 (as salt: salt) [Compound 4h, (E)-3-{4-{ {4-[ (4-Fluorobenzyl)oxy]phenyl}amino}quinolin-2-yl}-1-(4-methoxy - phenyl)prop-2-en-1-one]",176 to 177 °C,–,–,–
"COc1ccc(C(=O)/C=C/c2cc(Nc3ccc(OCc4ccccc4Cl)cc3)c3ccccc3n2)cc1 [Compound 4b, (E)-3-{4-{{4-[(2-Chlorobenzyl)oxy]phenyl}amino}quinolin-2-yl}-1-(4-methoxy - phenyl) prop-2-en-1-one]",–,1830 ± 220 nM,1590 ± 150 nM,> 20000 nM
COc1ccc(C(=O)/C=C/c2cc(Nc3ccc(OCc4ccccc4F)cc3)c3ccccc3n2)cc1 [Compound 4c],–,810 ± 60 nM,1040 ± 40 nM,> 20000 nM
"COc1ccc(C(=O)/C=C/c2cc(Nc3ccc(OCc4cccc(Cl)c4)cc3)c3ccccc3n2)cc1 [Compound 4d, (E)-3-{4-{{4-[(3-Chlorobenzyl)oxy]phenyl}amino}quinolin-2-yl}-1-(4-methoxy-phenyl) prop-2-en-1-one]",–,690 ± 40 nM,180 ± 60 nM,> 20000 nM
"COc1ccc(C(=O)/C=C/c2cc(Nc3ccc(OCc4cccc(F)c4)cc3)c3ccccc3n2)cc1 [Compound 4e, (E)-3-{4-{{4-[(3-Fluorobenzyl)oxy]phenyl}amino}quinolin-2-yl}-1-(4-methoxy-phenyl) prop-2-en-1-one]",–,1450 ± 280 nM,540 ± 110 nM,> 20000 nM
"COc1ccc(C(=O)/C=C/c2cc(Nc3ccc(OCc4cccc(OC)c4)cc3)c3ccccc3n2)cc1 [Compound 4f, (E)-3-{4-{{4-[(3-Methoxybenzyl)oxy]phenyl}amino}quinolin-2-yl}-1-(4-methoxy - phenyl)prop-2-en-1-one]",–,1410 ± 40 nM,1940 ± 520 nM,> 20000 nM
"COc1ccc(C(=O)/C=C/c2cc(Nc3ccc(OCc4ccc(Cl)cc4)cc3)c3ccccc3n2)cc1 [Compound 4g, (E )-3-{4-{{4-[(4-Chlorobenzyl)oxy]phenyl}amino}quinolin-2-yl}-1-(4-methoxy - phenyl)prop-2-en-1-one]",–,1310 ± 560 nM,1710 ± 350 nM,> 20000 nM
"COc1ccc(C(=O)/C=C/c2cc(Nc3ccc(OCc4ccc(F)cc4)cc3)c3ccccc3n2)cc1 [Compound 4h, (E)-3-{4-{ {4-[ (4-Fluorobenzyl)oxy]phenyl}amino}quinolin-2-yl}-1-(4-methoxy - phenyl)prop-2-en-1-one]",–,1370 ± 280 nM,1690 ± 210 nM,> 20000 nM

# Source: PMC10094048, “Synthesis and Anticancer Evaluation of 4-Anilinoquinolinylchalcone Derivatives” (International Journal of Molecular Sciences, 2023)
